Measurements taken from ChEMBL document CHEMBL1201862, “PubChem BioAssay data set” (2004).
Calls of active or inactive are those of the source. Where a SMILES comes first, the peptide text is derived from it. The star is where a group is joined. CH2Cl = ClC*

Legend:
Interleukin-8 [1] = target: T1, Interleukin-8 (Homo sapiens, UniProt P10145); assay: Dose Response confirmation of uHTS small molecule hits for cystic fibrosis induced NFkb Inhibitors in a PAF-induced IL8 counterscreen.; type: functional; settings: read-out: IC50_Mean
T1 sequence (P10145 whole entry): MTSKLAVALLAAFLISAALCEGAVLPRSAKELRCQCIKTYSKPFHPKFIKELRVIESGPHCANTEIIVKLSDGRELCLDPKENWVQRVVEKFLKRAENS

[2] = target: T2, Heat shock factor protein 1 (Mus musculus, UniProt P38532); assay: inhibition of MG132-induced HSE-luciferase signal, confirmation, cell-based, NIH3T3, luminescence, dose retest (AID 2382); type: functional;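 further: NIH3T3 fibroblasts with HSF1-driven luciferase reporter stressed by proteasome inhibitor MG132; luminescence from HSF1-driven luciferase expression after 8 hours of MG132 stress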
T2 sequence (P38532 whole entry): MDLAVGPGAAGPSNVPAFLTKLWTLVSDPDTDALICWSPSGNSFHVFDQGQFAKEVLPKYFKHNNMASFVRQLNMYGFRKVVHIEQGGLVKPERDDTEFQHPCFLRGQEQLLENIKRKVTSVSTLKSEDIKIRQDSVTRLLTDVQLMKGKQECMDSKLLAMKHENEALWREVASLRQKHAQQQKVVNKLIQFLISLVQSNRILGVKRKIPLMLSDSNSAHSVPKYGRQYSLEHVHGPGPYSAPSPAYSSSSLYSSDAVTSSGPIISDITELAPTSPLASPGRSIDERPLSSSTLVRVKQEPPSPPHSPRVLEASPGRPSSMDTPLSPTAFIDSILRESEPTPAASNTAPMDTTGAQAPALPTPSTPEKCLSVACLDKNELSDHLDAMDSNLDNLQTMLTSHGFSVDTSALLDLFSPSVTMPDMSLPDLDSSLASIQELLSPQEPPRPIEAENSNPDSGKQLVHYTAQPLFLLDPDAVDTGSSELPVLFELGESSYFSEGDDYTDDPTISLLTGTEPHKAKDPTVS

Interleukin-8 [3] = target: T1, Interleukin-8; assay: Dose Response confirmation of uHTS small molecule hits for cystic fibrosis induced NFkb Inhibitors in a TNFa-induced IL8 counterscreen.; type: functional; settings: read-out: IC50_Mean
[4] = target: T3, Corticotropin-releasing factor receptor 2/Corticotropin-releasing factor-binding protein (Homo sapiens, UniProt P24387+Q13324); assay: activators of CRF receptor 2 with binding protein – uHTS hits, confirmation (AID 602473); type: functional; settings: read-out: EC50_Mean
T3 sequence (Q13324 whole entry): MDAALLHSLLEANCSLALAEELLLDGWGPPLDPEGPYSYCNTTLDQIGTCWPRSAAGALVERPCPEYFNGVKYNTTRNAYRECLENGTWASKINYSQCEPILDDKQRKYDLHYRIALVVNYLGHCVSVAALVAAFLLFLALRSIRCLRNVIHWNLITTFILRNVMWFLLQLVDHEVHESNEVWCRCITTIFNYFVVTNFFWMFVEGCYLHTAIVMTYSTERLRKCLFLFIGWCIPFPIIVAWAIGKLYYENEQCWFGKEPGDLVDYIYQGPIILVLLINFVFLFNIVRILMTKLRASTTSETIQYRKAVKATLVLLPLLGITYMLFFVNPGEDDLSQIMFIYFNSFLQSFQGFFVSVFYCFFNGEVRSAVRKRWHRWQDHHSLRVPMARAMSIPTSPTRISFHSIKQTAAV
T3 sequence (P24387 whole entry): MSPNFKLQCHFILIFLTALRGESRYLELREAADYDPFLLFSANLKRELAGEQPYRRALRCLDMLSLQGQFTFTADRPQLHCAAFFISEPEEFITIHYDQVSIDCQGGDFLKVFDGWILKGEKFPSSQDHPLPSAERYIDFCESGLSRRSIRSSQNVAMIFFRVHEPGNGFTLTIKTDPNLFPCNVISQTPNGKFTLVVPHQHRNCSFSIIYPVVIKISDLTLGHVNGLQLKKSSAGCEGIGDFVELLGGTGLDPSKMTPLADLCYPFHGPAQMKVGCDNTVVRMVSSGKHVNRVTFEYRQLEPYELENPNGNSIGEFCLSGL

[5] = CRF-BP/CRF-R2 complex antagonists, dose response, cell-based, uHTS hits, 384-well (AID 651639); type: functional, Homo sapiens; settings: read-out: IC50_Mean
[6] = target: T3, Corticotropin-releasing factor receptor 2/Corticotropin-releasing factor-binding protein; assay: Dose Response confirmation of uHTS hits for small molecule antagonists of the CRF-binding protein and CRF-R2 receptor complex.; type: functional; settings: read-out: IC50_Mean
Protein skinhead-1 = target: T4, Protein skinhead-1 (Caenorhabditis elegans, UniProt P34707); type: functional
T4 sequence (P34707 whole entry): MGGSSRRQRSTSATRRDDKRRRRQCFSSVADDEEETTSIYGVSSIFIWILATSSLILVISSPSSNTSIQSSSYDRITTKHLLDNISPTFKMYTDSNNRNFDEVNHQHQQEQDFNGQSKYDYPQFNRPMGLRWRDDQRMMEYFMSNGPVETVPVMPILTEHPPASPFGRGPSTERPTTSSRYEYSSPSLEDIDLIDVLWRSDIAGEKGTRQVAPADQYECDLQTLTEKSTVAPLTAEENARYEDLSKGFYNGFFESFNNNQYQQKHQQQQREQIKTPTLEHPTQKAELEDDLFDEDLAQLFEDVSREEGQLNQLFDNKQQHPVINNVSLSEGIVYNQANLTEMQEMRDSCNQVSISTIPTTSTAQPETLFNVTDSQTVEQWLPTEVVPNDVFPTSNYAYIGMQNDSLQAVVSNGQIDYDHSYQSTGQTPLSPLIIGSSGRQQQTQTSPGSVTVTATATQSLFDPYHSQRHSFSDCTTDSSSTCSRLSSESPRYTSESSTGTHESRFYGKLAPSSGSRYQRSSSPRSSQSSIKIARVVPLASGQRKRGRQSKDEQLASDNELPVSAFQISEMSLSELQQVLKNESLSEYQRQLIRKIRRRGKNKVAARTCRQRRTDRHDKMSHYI

[7] = target: Matrix metalloproteinase-14 (Homo sapiens, UniProt P50281); assay: Dose Response confirmation of uHTS hits for a small molecule inhibitors of MT1-MMP activation in a fluorescence assay set 1.; type: functional
[8] = miR-122 activators in hepatoma reporter cells, dose response, cell-based, Huh7 psiCHECK-miR122, Renilla luciferase, cherry-picked (AID 651956); type: functional;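 further: huh7 hepatoma cells stably carrying a psiCHECK-2 miR-122 sensor plasmid; renilla luciferase signal reporting endogenous miR-122 activity after 48 h compound exposure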
[9] = Counterscreen for activators of the function of SWI/SNF related, matrix associated, actin dependent regulator of chromatin, subfamily a, member 2 (SMARCA2, BRM): Luminescence-based cell-based high throughput dose response assay to identify non-selective compounds using the VP16 reporter assay.; type: functional
[10] = target: SWI/SNF-related matrix-associated actin-dependent regulator of chromatin subfamily A member 2 (Homo sapiens, UniProt P51531); assay: Luminescence-based cell-based high throughput dose response assay to identify activators of the function of SWI/SNF related, matrix associated, actin dependent regulator of chromatin, subfamily a, member 2 (SMARCA2, BRM).; type: functional
Sequence of SWI/SNF-related matrix-associated actin-dependent regulator of chromatin subfamily A member 2 (P51531 whole entry): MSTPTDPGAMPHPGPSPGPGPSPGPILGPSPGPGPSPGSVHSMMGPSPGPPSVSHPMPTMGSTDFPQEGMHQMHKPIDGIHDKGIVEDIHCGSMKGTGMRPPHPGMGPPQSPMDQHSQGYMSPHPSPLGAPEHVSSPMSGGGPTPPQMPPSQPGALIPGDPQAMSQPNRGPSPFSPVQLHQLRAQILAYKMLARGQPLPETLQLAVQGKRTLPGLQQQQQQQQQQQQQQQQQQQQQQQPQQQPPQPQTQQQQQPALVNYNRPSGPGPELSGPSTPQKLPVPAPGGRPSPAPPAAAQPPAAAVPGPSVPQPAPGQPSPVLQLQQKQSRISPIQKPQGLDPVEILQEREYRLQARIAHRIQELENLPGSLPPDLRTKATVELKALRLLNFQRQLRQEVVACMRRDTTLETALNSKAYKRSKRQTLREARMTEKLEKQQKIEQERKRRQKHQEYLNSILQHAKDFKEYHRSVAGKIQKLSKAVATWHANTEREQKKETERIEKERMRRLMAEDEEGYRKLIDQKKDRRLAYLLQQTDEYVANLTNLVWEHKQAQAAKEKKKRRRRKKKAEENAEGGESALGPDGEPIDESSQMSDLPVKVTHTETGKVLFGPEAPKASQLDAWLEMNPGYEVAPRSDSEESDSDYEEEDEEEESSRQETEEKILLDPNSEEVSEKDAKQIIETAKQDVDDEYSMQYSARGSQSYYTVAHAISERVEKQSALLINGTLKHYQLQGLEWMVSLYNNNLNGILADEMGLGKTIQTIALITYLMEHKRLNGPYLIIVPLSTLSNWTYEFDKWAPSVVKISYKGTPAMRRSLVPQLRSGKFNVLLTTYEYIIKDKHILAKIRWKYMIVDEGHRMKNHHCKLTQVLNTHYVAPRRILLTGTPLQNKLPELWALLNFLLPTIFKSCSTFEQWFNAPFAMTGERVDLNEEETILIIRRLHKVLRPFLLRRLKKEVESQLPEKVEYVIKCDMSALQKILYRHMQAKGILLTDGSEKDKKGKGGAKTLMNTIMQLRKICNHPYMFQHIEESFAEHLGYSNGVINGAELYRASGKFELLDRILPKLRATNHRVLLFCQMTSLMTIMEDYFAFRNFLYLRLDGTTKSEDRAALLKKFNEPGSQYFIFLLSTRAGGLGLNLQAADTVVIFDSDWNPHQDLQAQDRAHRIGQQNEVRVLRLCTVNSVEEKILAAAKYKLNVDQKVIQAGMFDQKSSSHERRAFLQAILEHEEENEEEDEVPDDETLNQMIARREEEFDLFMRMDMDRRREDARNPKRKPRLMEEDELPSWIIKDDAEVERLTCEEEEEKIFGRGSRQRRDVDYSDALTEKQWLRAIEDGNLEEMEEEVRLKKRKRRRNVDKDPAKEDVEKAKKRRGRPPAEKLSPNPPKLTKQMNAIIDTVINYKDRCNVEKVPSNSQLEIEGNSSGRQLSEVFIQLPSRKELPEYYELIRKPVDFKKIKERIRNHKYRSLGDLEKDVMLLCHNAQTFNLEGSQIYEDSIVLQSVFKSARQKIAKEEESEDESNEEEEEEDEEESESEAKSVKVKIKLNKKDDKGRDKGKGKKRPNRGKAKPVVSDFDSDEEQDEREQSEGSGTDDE

[11] = target: T5, Probable nicotinate-nucleotide adenylyltransferase (Staphylococcus aureus (strain N315), UniProt P65502); type: functional, Staphylococcus aureus subsp. aureus N315; settings: read-out: IC50_Mean;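 on IC50 Mean: confirmatory dose-response retesting of NadD inhibitor hits first found in an ultra-high-throughput screen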
T5 sequence (P65502 whole entry): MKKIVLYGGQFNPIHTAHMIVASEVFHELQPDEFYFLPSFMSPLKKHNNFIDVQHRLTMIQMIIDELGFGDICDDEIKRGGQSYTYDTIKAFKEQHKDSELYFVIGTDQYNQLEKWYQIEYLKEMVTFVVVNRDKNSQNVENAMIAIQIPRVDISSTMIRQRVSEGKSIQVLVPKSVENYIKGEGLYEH

[12] = target: T5, Probable nicotinate-nucleotide adenylyltransferase; type: functional, Staphylococcus aureus subsp. aureus N315
[13] = target: T6, Carboxy-terminal domain RNA polymerase II polypeptide A small phosphatase 1 (Homo sapiens, UniProt Q9GZU7); assay: inhibitors of CTDSP1, concentration-response testing, biochemical assay, absorbance-based, actives from ultra-high-throughput screening (AID 540297); type: functional
T6 sequence (Q9GZU7 whole entry): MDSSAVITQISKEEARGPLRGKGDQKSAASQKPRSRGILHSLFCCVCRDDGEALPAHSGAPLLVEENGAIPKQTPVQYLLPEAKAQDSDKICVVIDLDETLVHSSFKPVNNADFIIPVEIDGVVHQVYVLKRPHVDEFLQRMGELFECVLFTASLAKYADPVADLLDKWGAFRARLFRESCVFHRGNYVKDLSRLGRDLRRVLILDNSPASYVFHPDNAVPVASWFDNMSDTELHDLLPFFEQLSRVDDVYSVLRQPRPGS

[14] = target: T7, Small ubiquitin-related modifier 1 (Homo sapiens, UniProt P63165); assay: inhibitors of SUMO1 peptide binding, dose response, biochemical, fluorescence polarization, uHTS hits (AID 624382); type: functional; settings: read-out: IC50_Mean
T7 sequence (P63165 whole entry): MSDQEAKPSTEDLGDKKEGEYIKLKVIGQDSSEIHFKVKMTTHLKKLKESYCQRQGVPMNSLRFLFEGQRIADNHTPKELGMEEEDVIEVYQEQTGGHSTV

[15] = target: T7, Small ubiquitin-related modifier 1; assay: inhibitors of SUMO1 partner interactions, dose response, biochemical, FRET (AID 624383); type: functional; settings: read-out: IC50_Mean
[16] = target: T8, Low molecular weight phosphotyrosine protein phosphatase (Homo sapiens, UniProt P24666); type: functional; settings: read-out: IC50_Mean;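 further: Dose-response confirmation assay measuring inhibition of LMPTP enzyme activity by fluorescence intensity read-out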
T8 sequence (P24666 whole entry): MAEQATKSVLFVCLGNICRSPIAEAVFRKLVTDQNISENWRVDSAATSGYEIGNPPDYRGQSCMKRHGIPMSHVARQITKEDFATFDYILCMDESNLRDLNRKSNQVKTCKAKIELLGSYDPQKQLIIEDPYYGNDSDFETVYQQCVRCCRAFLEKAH

[17] = target: T9, Methionyl-tRNA synthetase, putative (Trypanosoma brucei brucei, UniProt Q38C91); type: functional, Trypanosoma brucei brucei strain 927/4 GUTat10.1
T9 sequence (Q38C91 whole entry): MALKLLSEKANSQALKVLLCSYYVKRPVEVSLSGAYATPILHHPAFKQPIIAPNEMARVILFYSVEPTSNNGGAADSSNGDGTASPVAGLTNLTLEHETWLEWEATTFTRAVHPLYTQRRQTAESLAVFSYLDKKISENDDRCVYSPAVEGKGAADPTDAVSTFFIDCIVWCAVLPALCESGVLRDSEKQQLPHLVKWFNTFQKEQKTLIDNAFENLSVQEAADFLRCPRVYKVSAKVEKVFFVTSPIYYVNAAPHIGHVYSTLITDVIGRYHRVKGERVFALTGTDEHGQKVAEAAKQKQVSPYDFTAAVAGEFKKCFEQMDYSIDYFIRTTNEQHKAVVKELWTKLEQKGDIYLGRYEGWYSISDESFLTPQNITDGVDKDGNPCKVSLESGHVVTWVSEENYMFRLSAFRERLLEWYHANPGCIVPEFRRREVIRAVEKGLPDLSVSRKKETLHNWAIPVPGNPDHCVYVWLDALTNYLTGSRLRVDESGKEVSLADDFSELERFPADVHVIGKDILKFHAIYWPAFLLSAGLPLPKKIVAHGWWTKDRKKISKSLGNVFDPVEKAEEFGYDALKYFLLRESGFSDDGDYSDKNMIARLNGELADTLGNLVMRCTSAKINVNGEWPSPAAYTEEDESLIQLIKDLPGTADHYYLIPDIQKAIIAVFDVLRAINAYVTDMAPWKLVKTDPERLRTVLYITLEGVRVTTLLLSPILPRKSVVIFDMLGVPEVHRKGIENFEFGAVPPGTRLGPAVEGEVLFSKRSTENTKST

[18] = target: T9, Methionyl-tRNA synthetase, putative; type: functional, Trypanosoma brucei brucei strain 927/4 GUTat10.1; remark: listed apart in the source
[19] = Counterscreen for inhibitors of Trypanosoma brucei methionyl tRNA synthetase (MetRS): Luminescence-based cell-based high throughput dose response assay to identify compounds that are cytotoxic to Jurkat human T lymphocyte cells.; type: functional
[20] = ARNT/TACC3 interaction disruptors, potency, confirmation, biochemical, AlphaScreen, cherry-picked samples (AID 651703); type: functional, Homo sapiens;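 further: His-tagged ARNT PAS-B domain paired with GST-TACC3 E629A dimer coactivator fragment; potency of inhibitors that break up the complex and lower AlphaScreen signal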

CCN1CCN(Cc2ccc(NC(=O)c3ccc(C)c(NC(=O)c4cccc5[nH]ccc45)c3)cc2C(F)(F)F)CC1
IC50 (Interleukin-8 [1]): 4.72 µM (active)
EC50 [2]: 2.79 µM (active)
IC50 (Interleukin-8 [3]): 39.9 µM (inactive)

COCCCn1c(-c2ccc(OC)cc2)cc(C(=O)NC2CCCCCCC2)c1C
EC50 [4]: > 53 µM (inactive)
IC50 [5]: 11.5 µM (active)
IC50 [6]: 3.95 µM (active)

O=C(NNc1c2ccccc2nc2ccccc12)c1ccc(Cl)cc1
IC50 (Protein skinhead-1): > 100 µM (inactive)
IC50 [7]: 46.5 µM (inactive)

c1ccc(-n2nnnc2NCCc2c[nH]c3ccccc23)cc1
AC50 [8]: 9.93 µM (active)

CCc1c(C)c2ccc(OC3CCCCC3=O)cc2oc1=O (stereo not given)
EC50 [9]: > 91.2 µM (inactive)
EC50 [10]: > 91.2 µM (inactive)

O=C(CN1c2ccccc2Sc2ccccc21)NNC(=S)Nc1ccc(Cl)cc1Cl
IC50 [11]: 52.2 µM (active)
IC50 [12]: 13.7 µM (active)

COC(=O)c1ccc(C(=O)Nc2ccc3c(c2)C(=O)NC3=O)cc1
IC50 [13]: 6.87 µM (active)
IC50 [14]: > 66.6 µM (inactive)
IC50 [15]: 5.19 µM (active)

O=C(Nc1ccc2oc(-c3ccncc3)nc2c1)c1ccc2c(c1)OCO2
IC50 [14]: > 66.6 µM (inactive)
IC50 [15]: 7.12 µM (active)
IC50 [16]: 7.98 µM (active)

Cc1noc(C)c1COC(=O)Cc1ccc(Cl)c(Cl)c1
EC50 [4]: > 53 µM (inactive)
IC50 [5]: > 20 µM (inactive)
IC50 [6]: 33.8 µM (active)

O=C(CSc1nc2ccccc2[nH]1)Nc1nc(-c2ccc(Br)cc2)cs1
IC50 [17]: 85.4 µM (inactive)
IC50 [18]: 90.6 µM (inactive)
IC50 [19]: 55.6 µM (inactive)

CCN(CC)C(=O)CSc1nnc(-c2ccccn2)n1-c1ccc(C)c(C)c1
AC50 [20]: 92.4 µM (active)

CCOc1ccc(C(=O)N/N=C/c2ccc(-c3ccc(S(=O)(=O)Nc4ncccn4)cc3)o2)cc1
IC50 [11]: 23.8 µM (active)
IC50 [12]: 5.34 µM (active)

CC(=O)NC(CC(C)C)C(=O)NC(Cc1ccccc1)C(=O)CCl (stereo not drawn) (Ac-Leu-Phe-CH2Cl; configuration not given here)
IC50 (Interleukin-8 [1]): 1.04 µM (active)
IC50 (Interleukin-8 [3]): 3.63 µM (active)
